Results published in US10851073B2, “Protein tyrosine phosphatase inhibitors and methods of use thereof” (Calico Life Sciences LLC, priority 2019, dated 2020).

Key:
[1] = molecular target: T1, His tagged full-length PTPN1 protein (Homo sapiens, UniProt P18031); assay: Mobility shift assay (MSA) used to determine potency of PTPN1 inhibitors; assay type: biochemical; conditions: enzyme 0.5 nM, substrate 2 μM
T1 construct: made in house
T1 sequence (P18031 with tags, fused parts or gaps): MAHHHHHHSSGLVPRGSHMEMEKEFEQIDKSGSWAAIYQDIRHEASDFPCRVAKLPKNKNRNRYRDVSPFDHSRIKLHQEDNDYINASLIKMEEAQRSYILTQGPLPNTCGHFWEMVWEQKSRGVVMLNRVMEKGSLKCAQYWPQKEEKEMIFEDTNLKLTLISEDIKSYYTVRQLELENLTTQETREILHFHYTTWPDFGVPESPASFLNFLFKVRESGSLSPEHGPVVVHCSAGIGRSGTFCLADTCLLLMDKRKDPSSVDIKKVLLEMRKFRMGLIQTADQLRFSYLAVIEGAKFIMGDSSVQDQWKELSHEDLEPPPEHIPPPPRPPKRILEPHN
Method: Example 228: Mobility Shift Assay (MSA) Used to Determine Potency of PTPN1 Inhibitors
Compound activity was determined using in house His tagged full-length PTPN1 protein (SEQ ID NO: 3) in an in vitro enzymatic reaction. The enzymatic assay used to determine activity is a mobility shift assay using a LabChip EZ Reader by Caliper Life Sciences. The enzymatic reaction was carried out in assay buffer (50 mM HEPES pH 7.5, 1 mM EGTA, 10 mM EDTA, 0.01% Tween® 20, and 2 mM DTT). The compounds were dispensed on a white 384 well ProxiPlate™ (PerkinElmer Cat^# 6008289) plate using a Labcyte Echo® liquid handler at varying concentrations (12 point, 1:3 dilution). The enzyme (at 0.5 nM) was incubated with compound for 10 minutes at room temperature. Then the substrate (phosphorylated insulin receptor probe sequence: ((OG488)-(NH—CH2—CH2—O—CH2—CH2—O—CH2—CO)-T-R-D-I-(PY)-E-T-D-Y-Y-R-K-K-NH2) (SEQ ID NO: 2) was added at 2 μM to the plates and incubated for another 10 minutes at room temperature. Finally, a quench solution (water and 4-bromo-3-(2-oxo-2-propoxyethoxy)-5-(3-{[1-(phenylmethanesulfonyl)piperidin-4-yl]amino}phenyl)thiophene-2-carboxylic acid) was added to the plates, which were then run on the EZ Reader (excitation 488 nm, emission 530 nm) to measure % conversion (the amount of phosphorylated substrate which was de-phosphorylated by PTPN1). […] The % inhibition was then used to calculate the IC50 values.

[2] = molecular target: T2, His tagged PTPN2 (TC45) protein (Homo sapiens, UniProt P17706); assay: Mobility shift assay used to determine potency of PTPN2 inhibitors; assay type: biochemical; conditions: enzyme 0.5 nM, substrate 2 μM; read-out: PTPN2 MSA IC50
T2 construct: made in house
T2 sequence (P17706 with tags, fused parts or gaps isoform P17706-2): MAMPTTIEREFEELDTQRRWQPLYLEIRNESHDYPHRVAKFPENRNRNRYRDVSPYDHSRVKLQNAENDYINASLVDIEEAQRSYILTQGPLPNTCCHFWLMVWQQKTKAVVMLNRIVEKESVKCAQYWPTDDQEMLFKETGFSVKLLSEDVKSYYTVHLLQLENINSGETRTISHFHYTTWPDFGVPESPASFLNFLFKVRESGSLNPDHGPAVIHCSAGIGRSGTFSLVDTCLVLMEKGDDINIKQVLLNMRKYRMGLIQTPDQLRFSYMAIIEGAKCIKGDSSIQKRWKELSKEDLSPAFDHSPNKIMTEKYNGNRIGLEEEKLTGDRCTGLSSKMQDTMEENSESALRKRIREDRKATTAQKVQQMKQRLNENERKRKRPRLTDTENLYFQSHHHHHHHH
Method: Example 227: Mobility Shift Assay Used to Determine Potency of PTPN2 Inhibitors
Compound activity was determined using in house His tagged PTPN2 (TC45) protein (SEQ ID NO: 1) in an in vitro enzymatic reaction. The enzymatic assay used to determine activity was a mobility shift assay using a LabChip EZ Reader by Caliper Life Sciences. The enzymatic reaction was carried out in assay buffer (50 mM HEPES pH 7.5, 1 mM EGTA, 10 mM EDTA, 0.01% Tween® 20, and 2 mM DTT). The compounds were dispensed on a white 384 well ProxiPlate™ (PerkinElmer Catalog #6008289) plate using the Labcyte Echo at varying concentrations (12 point, 1:3 dilution). The enzyme (at 0.5 nM) was incubated with compound for 10 minutes at room temperature. Then the substrate (phosphorylated insulin receptor probe sequence: ((OG488)-(NH—CH2—CH2—O—CH2—CH2—O—CH2—CO)-T-R-D-I-(PY)-E-T-D-Y-Y-R-K-K-NH2) (SEQ ID NO: 2) was added at 2 μM to the plates and incubated for another 10 minutes at room temperature. Finally, a quench solution (water and 4-bromo-3-(2-oxo-2-propoxyethoxy)-5-(3-{[1-(phenylmethanesulfonyl)piperidin-4-yl]amino}phenyl)thiophene-2-carboxylic acid) was added to the plates, which were then run on the EZ Reader (excitation 488 nm, emission 530 nm) to measure % conversion (the amount of phosphorylated substrate which was de-phosphorylated by PTPN2). […] The % inhibition was then used to calculate the IC50 values.

IC50 [1]	SMILES	IC50 [2]
0.01 to 0.1 µM	CC(C)OCCNC1CCc2cc(O)c(N3CC(=O)NS3(=O)=O)c(F)c2C1 (stereo not shown) [Compound 186, 5-[1-fluoro-3-hydroxy-7-({2-[(propan-2-yl)oxy]ethyl}amino)-5,6,7,8-tetrahydronaphthalen-2-yl]-1λ^6,2,5-thiadiazolidine-1,1,3-trione]	0.01 to 0.1 µM
0.01 to 0.1 µM	CC(C)CC(=N)NC1CCc2cc(O)c(N3CC(=O)NS3(=O)=O)c(F)c2C1 (stereo not shown) [Compound 195, N-[8-fluoro-6-hydroxy-7-(1,1,4-trioxo-1λ^6,2,5-thiadiazolidin-2-yl)-1,2,3,4-tetrahydronaphthalen-2-yl]-3-methylbutanimidamide]	0.01 to 0.1 µM
> 0.1 µM	O=C1CN(c2c(O)cc3c(c2F)CN(CC(O)C2CCCCC2)CC3)S(=O)(=O)N1 (stereo not shown) [Compound 215, 5-[2-(2-cyclohexyl-2-hydroxyethyl)-8-fluoro-6-hydroxy-1,2,3,4-tetrahydroisoquinolin-7-yl]-1λ^6,2,5-thiadiazolidine-1,1,3-trione]	> 0.1 µM
0.01 to 0.1 µM	O=C1CN(c2c(O)cc3c(c2F)CN(CC2CC4CCC2O4)CC3)S(=O)(=O)N1 (stereo not shown) [Compound 222, 5-{8-fluoro-6-hydroxy-2-[(7-oxabicyclo[2.2.1]heptan-2-yl)methyl]-1,2,3,4-tetrahydroisoquinolin-7-yl}-1λ^6,2,5-thiadiazolidine-1,1,3-trione]	0.01 to 0.1 µM
0.001 to 0.01 µM	O=C1CN(c2c(O)cc3c(c2F)CN(CCC24CCC(CC2)C4)CC3)S(=O)(=O)N1 [Compound 239, 5-{2-[2-(bicyclo[2.2.1]heptan-1-yl)ethyl]-8-fluoro-6-hydroxy-1,2,3,4-tetrahydroisoquinolin-7-yl}-1λ^6,2,5-thiadiazolidine-1,1,3-trione]	0.001 to 0.01 µM
> 0.1 µM	C=CCC1(N)CCc2cc(O)c(N3CC(=O)NS3(=O)=O)c(F)c2C1 (stereo not shown) [Compound 240, 5-[7-amino-1-fluoro-3-hydroxy-7-(prop-2-en-1-yl)-5,6,7,8-tetrahydronaphthalen-2-yl]-1λ^6,2,5-thiadiazolidine-1,1,3-trione]	0.01 to 0.1 µM
0.01 to 0.1 µM	CC(O)CCN1CCc2cc(O)c(N3CC(=O)NS3(=O)=O)c(F)c2C1 (stereo not shown) [Compound 242, 5-[8-fluoro-6-hydroxy-2-(3-hydroxybutyl)-1,2,3,4-tetrahydroisoquinolin-7-yl]-1λ^6,2,5-thiadiazolidine-1,1,3-trione]	0.01 to 0.1 µM
0.01 to 0.1 µM	O=C1CN(c2c(O)cc3c(c2F)CN(C(=O)NCC2CCOC2)CC3)S(=O)(=O)N1 (stereo not shown) [Compound 270, 8-fluoro-6-hydroxy-N-[(oxolan-3-yl)methyl]-7-(1,1,4-trioxo-1λ^6,2,5-thiadiazolidin-2-yl)-3,4-dihydroisoquinoline-2(1H)-carboxamide]	0.01 to 0.1 µM
0.001 to 0.01 µM	O=C1CN(c2c(O)cc3c(c2F)CC(CNCCCC2CC2)C3)S(=O)(=O)N1 (stereo not shown) [Compound 274, 5-(2-{[(3-cyclopropylpropyl)amino]methyl}-4-fluoro-6-hydroxy-2,3-dihydro-1H-inden-5-yl)-1λ^6,2,5-thiadiazolidine-1,1,3-trione]	0.001 to 0.01 µM
0.01 to 0.1 µM	CC(C)CNCC1Cc2cc(O)c(N3CC(=O)NS3(=O)=O)c(F)c2C1 (stereo not shown) [Compound 275, 5-(4-fluoro-6-hydroxy-2-{[(2-methylpropyl)amino]methyl}-2,3-dihydro-1H-inden-5-yl)-1λ^6,2,5-thiadiazolidine-1,1,3-trione]	0.01 to 0.1 µM
> 0.1 µM	Cc1noc(C)c1CNC1CCc2cc(O)c(N3CC(=O)NS3(=O)=O)c(F)c2C1 (stereo not shown) [Compound 287, 5-(7-{[(3,5-dimethyl-1,2-oxazol-4-yl)methyl]amino}-1-fluoro-3-hydroxy-5,6,7,8-tetrahydronaphthalen-2-yl)-1λ^6,2,5-thiadiazolidine-1,1,3-trione]	0.01 to 0.1 µM
0.001 to 0.01 µM	Cc1noc(C)c1CCNC1CCc2cc(O)c(N3CC(=O)NS3(=O)=O)c(F)c2C1 (stereo not shown) [Compound 290, 5-(7-{[2-(3,5-dimethyl-1,2-oxazol-4-yl)ethyl]amino}-1-fluoro-3-hydroxy-5,6,7,8-tetrahydronaphthalen-2-yl)-1λ^6,2,5-thiadiazolidine-1,1,3-trione]	0.001 to 0.01 µM
> 0.1 µM	CC(Cc1ccc(C(C)C)cc1)CN1CCc2cc(O)c(N3CC(=O)NS3(=O)=O)c(F)c2C1 (stereo not shown) [Compound 295, 5-(8-fluoro-6-hydroxy-2-{2-methyl-3-[4-(propan-2-yl)phenyl]propyl}-1,2,3,4-tetrahydroisoquinolin-7-yl)-1λ^6,2,5-thiadiazolidine-1,1,3-trione]	0.01 to 0.1 µM
0.01 to 0.1 µM	CC(CCN1CCc2cc(O)c(N3CC(=O)NS3(=O)=O)c(F)c2C1)CC(C)(C)C (stereo not shown) [Compound 302, 5-[8-fluoro-6-hydroxy-2-(3,5,5-trimethylhexyl)-1,2,3,4-tetrahydroisoquinolin-7-yl]-1λ^6,2,5-thiadiazolidine-1,1,3-trione]	0.001 to 0.01 µM
> 0.1 µM	CC(O)CCOC(=O)N1Cc2c(cc(O)c(N3CC(=O)NS3(=O)=O)c2F)C(F)(F)C1 (stereo not shown) [Compound 304, 3-hydroxybutyl 4,4,8-trifluoro-6-hydroxy-7-(1,1,4-trioxo-1λ^6,2,5-thiadiazolidin-2-yl)-3,4-dihydroisoquinoline-2(1H)-carboxylate]	> 0.1 µM
0.01 to 0.1 µM	O=C1CN(c2c(O)cc3c(c2F)CC(CNCCC2CCC2)C3)S(=O)(=O)N1 (stereo not shown) [Compound 305, 5-(2-{[(2-cyclobutylethyl)amino]methyl}-4-fluoro-6-hydroxy-2,3-dihydro-1H-inden-5-yl)-1λ^6,2,5-thiadiazolidine-1,1,3-trione]	0.01 to 0.1 µM
0.01 to 0.1 µM	O=C1CN(c2c(O)cc3c(c2F)CCC(OCC2CC2)C3)S(=O)(=O)N1 (stereo not shown) [Compound 310, 5-[6-(cyclopropylmethoxy)-1-fluoro-3-hydroxy-5,6,7,8-tetrahydronaphthalen-2-yl]-1λ^6,2,5-thiadiazolidine-1,1,3-trione]	0.01 to 0.1 µM
0.001 to 0.01 µM	O=C1CN(c2c(O)cc3c(c2F)CCC(NCCCC(F)F)C3)S(=O)(=O)N1 (stereo not shown) [Compound 311, 5-{6-[(4,4-difluorobutyl)amino]-1-fluoro-3-hydroxy-5,6,7,8-tetrahydronaphthalen-2-yl}-1λ^6,2,5-thiadiazolidine-1,1,3-trione]	0.001 to 0.01 µM

SMILES	IC50 [1]	IC50 [2]
CC(C)(O)CCOC1CCc2c(cc(O)c(N3CC(=O)NS3(=O)=O)c2F)C1 (stereo not shown) [Compound 309, 5-[1-fluoro-3-hydroxy-6-(3-hydroxy-3-methylbutoxy)-5,6,7,8-tetrahydronaphthalen-2-yl]-1λ^6,2,5-thiadiazolidine-1,1,3-trione]	0.01 to 0.1 µM	0.01 to 0.1 µM
O=C1CN(c2c(O)cc3c(c2F)CCC(OCCCC(F)F)C3)S(=O)(=O)N1 (stereo not shown) [Compound 312, 5-[6-(4,4-difluorobutoxy)-1-fluoro-3-hydroxy-5,6,7,8-tetrahydronaphthalen-2-yl]-1λ^6,2,5-thiadiazolidine-1,1,3-trione]	0.01 to 0.1 µM	0.01 to 0.1 µM
